In brackets after ≈: the same amount, converted by molar mass. One block for each molecule: values may come before it.
Columns and labels:
physchem = conditions: 25 °C, pH 7, aqueous buffer
solubility in water = conditions: 25 °C
[1] = pH 7, 25° C.; 'known to be'; cited from earlier work

Structure (SMILES): CC1C(O)C=C(C(=O)O)CC1O (stereo not shown) [Compound (1)]
solubility (physchem): ≥ 50 mg/mL

solubility (solubility in water; pH 7, aqueous buffer): ≥ 50 mg/mL
Structure (SMILES): CC1C(O)CC(O)(C(=O)O)CC1O (stereo not shown) [Compound (2)]

solubility (solubility in water; pH 0, aqueous buffer): ≤ 0.1 mg/mL
Structure (SMILES): Cc1ccc(C(=O)O)cc1 [p-toluic acid]
solubility in water [1]: 0.3 mg/mL (≈ 2.2 mM)

From patent US10125075B2, “P-toluic acid production method” (TORAY INDUSTRIES, INC., priority 2015, dated 2018)
